What all share (assay): NCI-60 cell line screen, 48 h
Test [1] relates to EKVX NSCLC.
The subject of test [2] is ACHN renal.
Test [3] has as its system HL-60(TB) leukemia.
In test [4] the test system is NCI-H522 lung.
Test [5] deals with UACC-62 melanoma.
Test [6] has as its system OVCAR-3 ovarian.
Test [7] concerns M14 melanoma.
Test [8] has as its system SK-MEL-28 melanoma.
Test [9] concerns OVCAR-5 ovarian.
The test system of test [10] is LOX IMVI melanoma.

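48-hour exposure; five concentrations; linearly interpolated endpoints. Here, GI50 denotes the concentration required for 50% inhibition of growth. TGI: total growth inhibition.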

With `CC(C)c1cc2c(O)c(c1)Cc1cc(C(C)C)cc(c1O)Cc1cc(C(C)C)cc(c1O)Cc1cc(C(C)C)cc(c1O)Cc1cc(C(C)C)cc(c1O)Cc1cc(C(C)C)cc(c1O)C2`, the TGI in test [1], in test [2], in [3], in test [4], in [5] and in test [6] was greater than 100 µM in each case. For the same compound, the TGI in test [7], in test [8] and in test [9] was greater than 100 µM throughout.

Consider `COc1cc([N+](=O)[O-])c2ncccc2c1O`, for which the GI50 in test [10] was 3.88 µM; in [1] it was 18.8 µM; in [2], 6.08 µM; in test [3], 43.3 µM; in [5], 1.94 µM; in test [6], 4.76 µM. The GI50 in test [7] was 1.45 µM; in test [8], 2.77 µM; in test [9], 5.09 µM. Moreover, the TGI is 33.6 µM in test [10]; 78.1 µM in [1]; greater than 100 µM in test [2]; greater than 100 µM in [3]; 5.1 µM in test [5]; 37.3 µM in test [6]. The TGI in [7] was 3.02 µM; in test [8], 7.78 µM; in test [9] it was greater than 100 µM.

For `C[Si](C)(C)[C@@]1([Se]c2ccccc2)CC[C@@H]1C(=O)c1ccccc1`, the TGI is greater than 100 µM in [10]; greater than 100 µM in test [1]; greater than 100 µM in test [2]; 58.1 µM in test [4]; greater than 100 µM in [5]; greater than 100 µM in test [6]. In addition, the TGI in test [7], in test [8] and in [9] was greater than 100 µM each time.

As for `CC(C)(CN1CCCCC1)C(=O)CC(SCCS(=O)(=O)O)c1ccc(Cl)c(Cl)c1` (stereo not drawn), the TGI turned out to be 18 µM in [1]; 9.03 µM in [2]; 5.63 µM in [3]; 5.59 µM in test [4]; 10.1 µM in [5]; 6.97 µM in test [6]. The TGI in test [7] turned out to be 3.8 µM; in test [9], 14.6 µM.

Turning to `CCOc1ccc(N2C(N)=NC(N)=NC2(C)C)cc1`, the GI50 is 45.8 µM in [10]; greater than 100 µM in [2]; 72 µM in test [3]; greater than 100 µM in test [4]; 43.8 µM in test [5]; greater than 100 µM in [6]. In addition, the GI50 in test [8] is 53.7 µM; in test [9] it was 39.7 µM. In addition, the TGI in test [10], in test [2], in test [3], in [4], in test [5] and in [6] was greater than 100 µM throughout. Also, the TGI in test [8] and in test [9] was greater than 100 µM each time.

In the case of `C/C(=N\NC(=S)Nc1ccc([N+](=O)[O-])cc1S(=O)(=O)O)c1ccccn1`, the TGI in test [10] was greater than 100 µM; in test [1] it was greater than 100 µM; in test [2], greater than 100 µM; in test [3] it was 84.8 µM; in test [5], greater than 100 µM; in [6] it was 72.7 µM. Further, the TGI in test [7], in test [8] and in test [9] was greater than 100 µM throughout.

As to `CC(=O)Nc1[nH]c(=O)[nH]c(=O)c1N(C(C)=O)C(C)=O`, the TGI in test [10], in test [1], in test [2], in test [3], in [5] and in [6] was greater than 100 µM throughout. Moreover, the TGI in [7], in test [8] and in test [9] was greater than 100 µM each time.

Consider `ClCc1ccc(Cn2cnc3ncnc(Cl)c32)cc1`, for which the GI50 is 2.25 µM in test [1]; 4.3 µM in [4]; 2.5 µM in test [5]; 1.8 µM in test [6]; 2.73 µM in [7]; 6.26 µM in test [9]. Further, the TGI is 4.45 µM in [1]; greater than 100 µM in test [4]; 12 µM in test [5]; 3.39 µM in test [6]; 13 µM in [7]; 19.7 µM in [9].

As for `Clc1cccc(C2SCc3nc4ccccc4n32)c1Cl` (stereo not drawn), the TGI in [1] turned out to be 30.8 µM; in [2], 35.3 µM; in test [3], 20.3 µM; in test [4] it was 32.1 µM; in test [5] it was 34.3 µM; in test [6] it was 33.7 µM. Moreover, the TGI in [7] turned out to be 30.5 µM; in [8], 35.9 µM; in [9], 27.1 µM.

For the compound `CC(C)S(=O)(=O)n1c(N)nc2ccc(/C(=N/O)c3ccccc3)cc21`, the TGI in test [1] came to 59.1 µM; in [2], 57.8 µM; in test [3], 44.3 µM; in [4], 35.2 µM; in test [5], 81.8 µM; in test [6], 50.6 µM. The TGI in test [7] is 65.9 µM; in test [8], greater than 100 µM; in [9], 58.7 µM.

As for `N#CCc1nc2c(s1)C(=O)c1ccccc1C2=O`, the TGI was determined as 28.1 µM in [10]; 49.1 µM in [1]; 27.4 µM in test [2]; 29.9 µM in test [4]; 26.5 µM in test [5]; 29.3 µM in [6]. Further, the results for the TGI in test [7], in test [8] and in test [9] were 28.5 µM, 32.8 µM and 37.2 µM, respectively.

Take `C=C(C)[C@@H]1CC[C@]2(C#N)CC[C@]3(C)[C@H](CC[C@@H]4[C@@]5(C)CCCNC(C)(C)[C@@H]5CC[C@]43C)[C@@H]12`: the GI50 in [10] was 1.67 µM; in test [1], 1.79 µM; in test [2], 1.83 µM; in test [4] it was 1.93 µM; in test [5], 1.96 µM; in test [6] it was 1.75 µM. The GI50 was 1.83 µM in [7], 1.92 µM in test [8] and 2.72 µM in test [9]. Besides, the TGI worked out at 3.04 µM in [10]; 3.83 µM in [1]; 3.22 µM in test [2]; 3.61 µM in [4]; 3.6 µM in [5]; 3.38 µM in test [6]. In addition, the TGI was 3.49 µM in test [7], 3.5 µM in test [8] and 7.15 µM in test [9].

Take `CCCCN=C(OC1C=CCCC1)SC` (stereo not drawn): the TGI in test [1], in test [2], in test [3], in [5], in test [6] and in test [7] was greater than 100 µM in each case. Moreover, the TGI in [8] and in test [9] was greater than 100 µM throughout.

The record behind these values is PubChem BioAssay (NCI).
